Reference: patent publication US12643879B2, “Functionalized heterocyclic compounds as modulators of stimulator of interferon genes (STING)” (RYVU THERAPEUTICS S.A., priority 2019, dated 2026)

Assays:
human STING = human STING (Homo sapiens, UniProt Q86WV6); test: Fluorescence Thermal Shift assay (binding to STING); conditions: STING 0.1 mg/mL, SyproOrange, 25 to 99° C.
Procedure: Compounds, constructs and conjugates of the present invention were tested for binding to human STING in Fluorescence Thermal Shift assay. STING was preincubated with the compounds for 20 minutes in 50 mM Hepes, 150 mM NaCl, pH 7.5 in 15 or 16 μl volume, following by adding 4 μl of SyproOrange dye dilution (ThermoFisher, cat no. S-6651). Final STING concentration was 0.1 mg/mL. Thermal unfolding was performed in Real-Time PCR QuantStudio 6 Flex System (Applied Biosystems), from 25 to 99° C., with continuous ramp mode and ramp rate 0.033° C./s. The data were analyzed using Protein Thermal Shift Software (ThermoFisher).

[1] = system: interferon regulatory factor (IRF) pathway in THP-1 dual cells; test: THP-1 Dual reporter assay, IRF pathway (luciferase); assay type: cell-based; conditions: Homo sapiens, THP1-Dual; 18 h stimulation, luminescence; read-out: THP1 Dual EC50 (μM) IRF
Method in brief: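 Compounds (STING agonists) stimulated THP-1 dual cells for 18 h; the cells carry an ISG54 promoter/ISRE-driven luciferase (IRF) and an IFN-β minimal promoter/NF-κB element-driven SEAP. Luciferase in conditioned medium was read by luminescence immediately; SEAP by absorbance at 630 or 655 nm after 1 or 2 h at 37° C.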

[2] = system: NF-κB pathway in THP-1 dual cells; test: THP-1 Dual reporter assay, NF-κB pathway (SEAP); assay type: cell-based; conditions: Homo sapiens, THP1-Dual; 18 h stimulation, absorbance at 630 or 655 nm; read-out: THP1 Dual EC50 (μM) NFkB
Method in brief: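 Readouts come from THP-1 dual cell supernatant taken 18 h after STING agonist addition. SEAP activity is developed in detection medium for 1–2 h at 37° C and read at 630/655 nm; luciferase is read by luminescence immediately after reagent addition.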

Sequence of human STING (Q86WV6 whole entry H232R): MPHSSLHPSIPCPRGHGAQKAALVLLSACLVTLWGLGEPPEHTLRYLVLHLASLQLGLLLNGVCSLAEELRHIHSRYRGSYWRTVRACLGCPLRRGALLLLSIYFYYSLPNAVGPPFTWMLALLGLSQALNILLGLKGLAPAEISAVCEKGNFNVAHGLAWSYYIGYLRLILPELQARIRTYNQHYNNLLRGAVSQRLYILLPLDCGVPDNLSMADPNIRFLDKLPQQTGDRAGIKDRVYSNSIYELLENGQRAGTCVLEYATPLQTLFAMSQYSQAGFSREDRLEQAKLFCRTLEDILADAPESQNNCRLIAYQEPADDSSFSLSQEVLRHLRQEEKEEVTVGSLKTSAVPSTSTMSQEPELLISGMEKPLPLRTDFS

| Structure (SMILES) | hSTING FTS binding assay (ΔT C. °) (human STING) | EC50 [1] [µM] | EC50 [2] [µM] |
| --- | --- | --- | --- |
| Cc1cc(CN(Cc2cn(C)c3ccccc3c2=O)[C@H]2CCCN(c3cccc(N)c3)C2)ccn1.Cl [Example 1, 3-({[(3S)-1-(3-Aminophenyl)piperidin-3-yl][(2-methylpyridin-4-yl)methyl]amino}methyl)-1-methyl-1,4-dihydroquinolin-4-one hydrochloride] | + (+=ΔTm ≤10° C.) | 1 to 10 | 1 to 10 |
| Cc1cc(CN(Cc2cn(C)c3ccccc3c2=O)[C@H]2CCCN(c3ccc(N)nc3)C2)ccn1 [Example 2, 3-({[(3S)-1-(6-Aminopyridin-3-yl)piperidin-3-yl][(2-methylpyridin-4-yl)methyl]amino}methyl)-1-methyl-1,4-dihydroquinolin-4-one] | +++ (+++=ΔTm ≥20° C.) | < 1 | < 1 |
| Cc1cc(CN(Cc2cn(C)c3ccccc3c2=O)[C@H]2CCCN(c3ccc(CN)nc3)C2)ccn1.Cl [Example 3, 3-({[(3S)-1-[6-(Aminomethyl)pyridin-3-yl]piperidin-3-yl][(2-methylpyridin-4-yl)methyl]amino}methyl)-1-methyl-1,4-dihydroquinolin-4-one hydrochloride] | + (+=ΔTm ≤10° C.) | < 1 | 1 to 10 |
| Cc1ccc(N2CCC[C@H](N(Cc3ccnc(N)c3)Cc3cn(C4CC4)c4cc(F)c(F)cc4c3=O)C2)cn1.Cl [Example 5, 3-({[(2-Aminopyridin-4-yl)methyl][(3S)-1-(6-methylpyridin-3-yl)piperidin-3-yl]amino}methyl)-1-cyclopropyl-6,7-difluoro-1,4-dihydroquinolin-4-one hydrochloride] | +++ (+++=ΔTm ≥20° C.) | < 1 | < 1 |
| Cc1ccc(N2CCC[C@H](N(Cc3ccnc(C)c3)Cc3cn(C)c4cc(N5CCC(N)CC5)ccc4c3=O)C2)cn1.Cl [Example 6, 7-(4-Aminopiperidin-1-yl)-1-methyl-3-({[(3S)-1-(6-methylpyridin-3-yl)piperidin-3-yl][(2-methylpyridin-4-yl)methyl]amino}methyl)-1,4-dihydroquinolin-4-one hydrochloride] | ++ (++=10<ΔTm <20° C.) | 1 to 10 | 1 to 10 |
| Cc1ccc(N2CCC[C@H](N(Cc3ccnc(C)c3)Cc3cn(C4CC4)c4cc(N)c(F)cc4c3=O)C2)cn1 [Example 7, 7-Amino-1-cyclopropyl-6-fluoro-3-({[(3S)-1-(6-methylpyridin-3-yl)piperidin-3-yl][(2-methylpyridin-4-yl)methyl]amino}methyl)-1,4-dihydroquinolin-4-one] | +++ (+++=ΔTm ≥20° C.) | < 1 | < 1 |
| Cc1ccc(N2CCC[C@H](N(Cc3ccnc(C)c3)Cc3cn(C4CC4)c4cc(NCCN)c(F)cc4c3=O)C2)cn1 [Example 8, 7-[(2-Aminoethyl)amino]-1-cyclopropyl-6-fluoro-3-({[(3S)-1-(6-methylpyridin-3-yl)piperidin-3-yl][(2-methylpyridin-4-yl)methyl]amino}methyl)-1,4-dihydroquinolin-4-one] | +++ (+++=ΔTm ≥20° C.) | < 1 | < 1 |
| Cc1ccc(N2CCC[C@H](N(Cc3ccnc(C)c3)Cc3cn(C4CC4)c4cc(NCCN(C)C)c(F)cc4c3=O)C2)cn1 [Example 9, 1-Cyclopropyl-7-{[2-(dimethylamino)ethyl]amino}-6-fluoro-3-({[(3S)-1-(6-methylpyridin-3-yl)piperidin-3-yl][(2-methylpyridin-4-yl)methyl]amino}methyl)-1,4-dihydroquinolin-4-one] | +++ (+++=ΔTm ≥20° C.) | < 1 | < 1 |
| Cc1ccc(N2CCC[C@H](N(Cc3ccnc(C)c3)Cc3cn(C4CC4)c4cc(OCCN)c(F)cc4c3=O)C2)cn1 [Example 10, 7-(2-Aminoethoxy)-1-cyclopropyl-6-fluoro-3-({[(3S)-1-(6-methylpyridin-3-yl)piperidin-3-yl][(2-methylpyridin-4-yl)methyl]amino}methyl)-1,4-dihydroquinolin-4-one] | +++ (+++=ΔTm ≥20° C.) | < 1 | < 1 |
| CNCCOc1cc2c(cc1F)c(=O)c(CN(Cc1ccnc(C)c1)[C@H]1CCCN(c3ccc(C)nc3)C1)cn2C1CC1.Cl [Example 11, 1-Cyclopropyl-6-fluoro-7-[2-(methylamino)ethoxy]-3-({[(3S)-1-(6-methylpyridin-3-yl)piperidin-3-yl][(2-methylpyridin-4-yl)methyl]amino}methyl)-1,4-dihydroquinolin-4-one hydrochloride] | +++ (+++=ΔTm ≥20° C.) | < 1 | < 1 |
| Cc1cc(CN(Cc2cn(C(C)C)c3cc(F)c(F)cc3c2=O)[C@H]2CCCN(c3ccc(N)nc3)C2)ccn1.Cl [Example 24, 3-({[(3)-1-(6-aminopyridin-3-yl)piperidin-3-yl][(2-methylpyridin-4-yl)methyl]amino}methyl)-6,7-difluoro-1-(propan-2-yl)-1,4-dihydroquinolin-4-one hydrochloride] | +++ (+++=ΔTm ≥20° C.) |  |  |
| Cc1ccc(N2CCC[C@H](N(Cc3ccnc(C)c3)Cc3cn(C4CC4)c4cc(NC(=O)CN)c(F)cc4c3=O)C2)cn1 [Example 25, 2-amino-N-[1-cyclopropyl-6-fluoro-3-({[(3S)-1-(6-methylpyridin-3-yl)piperidin-3-yl][(2-methylpyridin-4-yl)methyl]amino}methyl)-4-oxo-1,4-dihydroquinolin-7-yl]acetamide] | +++ (+++=ΔTm ≥20° C.) |  |  |

Now from value to molecule:

| hSTING FTS binding assay (ΔT C. °) (human STING) | EC50 [1] [µM] | EC50 [2] [µM] | Structure (SMILES) |
| --- | --- | --- | --- |
| +++ (+++=ΔTm ≥20° C.) |  |  | Cc1ccc(N2CCC[C@H](N(Cc3ccnc(C)c3)Cc3cn(C4CC4)c4cc(N5CC[C@@H](N)C(F)(F)C5)c(F)cc4c3=O)C2)cn1.Cl (single isomer, unassigned) [Example 56] |
| +++ (+++=ΔTm ≥20° C.) | < 1 | < 1 | Cc1ccc(N2CCC[C@H](N(Cc3ccnc(C)c3)Cc3cn(C4CC4)c4cc(N5CC[C@@H](N)C5)c(F)cc4c3=O)C2)cn1.Cl [Example 12, 7-[(3R)-3-Aminopyrrolidin-1-yl]-1-cyclopropyl-6-fluoro-3-({[(3S)-1-(6-methylpyridin-3-yl)piperidin-3-yl][(2-methylpyridin-4-yl)methyl]amino}methyl)-1,4-dihydroquinolin-4-one hydrochloride] |
| +++ (+++=ΔTm ≥20° C.) | < 1 | < 1 | Cc1ccc(N2CCC[C@H](N(Cc3ccnc(C)c3)Cc3cn(C4CC4)c4cc(N5CC[C@H](N)C5)c(F)cc4c3=O)C2)cn1.Cl [Example 13, 7-[(3S)-3-Aminopyrrolidin-1-yl]-1-cyclopropyl-6-fluoro-3-({[(3S)-1-(6-methylpyridin-3-yl)piperidin-3-yl][(2-methylpyridin-4-yl)methyl]amino}methyl)-1,4-dihydroquinolin-4-one hydrochloride] |
| +++ (+++=ΔTm ≥20° C.) | < 1 | < 1 | Cc1ccc(N2CCC[C@H](N(Cc3ccnc(C)c3)Cc3cn(C4CC4)c4cc(N5CC[C@@H](O)C5)c(F)cc4c3=O)C2)cn1.Cl [Example 14, 1-Cyclopropyl-6-fluoro-7-[(3R)-3-hydroxypyrrolidin-1-yl]-3-({[(3S)-1-(6-methylpyridin-3-yl)piperidin-3-yl][(2-methylpyridin-4-yl)methyl]amino}methyl)-1,4-dihydroquinolin-4-one hydrochloride] |
|  | < 1 | < 1 | Cc1cc(CN(Cc2cn(C3CC3)c3cc(OCCO)c(F)cc3c2=O)[C@H]2CCCN(c3ccc(C4CC4)nc3)C2)ccn1 [Example 100, 1-cyclopropyl-3-({[(3S)-1-(6-cyclopropylpyridin-3-yl)piperidin-3-yl][(2-methylpyridin-4-yl)methyl]amino}methyl)-6-fluoro-7-(2-hydroxyethoxy)-1,4-dihydroquinolin-4-one] |
|  | 1 to 10 | 1 to 10 | Cc1cc(CN(Cc2cn(C)c3ccccc3c2=O)[C@H]2CCCN(c3ccc(OCCO)nc3)C2)ccn1 [Example 101, 3-({[(3S)-1-[6-(2-hydroxyethoxy)pyridin-3-yl]piperidin-3-yl][(2-methylpyridin-4-yl)methyl]amino}methyl)-1-methyl-1,4-dihydroquinolin-4-one] |
|  | 1 to 10 | 1 to 10 | Cc1cc(CN(Cc2cn(C3CC3)c3cc(Cl)c(F)cc3c2=O)[C@H]2CCCN(c3ccc(C(=O)O)nc3)C2)ccn1 [Example 102] |
|  | < 1 | < 1 | Cc1cc(CN(Cc2cn(C3CC3)c3cc(Cl)c(F)cc3c2=O)[C@H]2CCCN(c3ccc(C(N)=O)nc3)C2)ccn1 [Example 103, 5-[(3S)-3-{[(7-Chloro-1-cyclopropyl-6-fluoro-4-oxo-1,4-dihydroquinolin-3-yl)methyl][(2-methylpyridin-4-yl)methyl]amino}piperidin-1-yl]pyridine-2-carboxamide] |
